Measured values from patent US20060089395A1, “Nf-kb activation inhibitors” (priority 2002, published 2006).
Like-named read-outs stand apart in the source and are kept apart here.

Tested on: NF-κ B
Assay: Inhibitory activity of NF-κ B activation, luciferase reporter assay in HepG2 under TNF-α stimulation
Format: cell-based, human
Details: for inhibition at 1 µg/mL / inhibition at 10 µg/mL / inhibition at 0.1 µg/mL: Homo sapiens; for inhibition at 0.1 µg/mL: 0.1 μg/ml, read-out: Inhibitory Ratio of NF-κB Activation (%) 0.1 μg/ml
Experimental: Using a transfection reagent(Effectene; QIAGEN), the human hepatoma cell strain HepG2 was transfected with a plasmid(pNF κ B-Luc Reporter Plasmid; […]) which is integrated with an oligonucleotide having five tandem copies of NF-κ B binding sequences([…]) on a upstream region of firefly luciferase gene(Luc) according to the QIAGEN's protocol, and the cells were incubated for 6 to 24 hours. After the addition of TNF-α (40 ng/ml) in the presence or absence of a test compound, the cells were incubated for 4 hours, and intracellular luciferase activity was measured by using PicaGene LT (TOYO INK MFG Co., Ltd.) and a chemical luminescence measurement apparatus ([…]luor Plus; TECAN). The inhibitory ratio was measured as a ratio relative to the value of a luciferase activity in the absence of the test compound.

[1] = 1 μg/mL, HepG2, TNF-α (40 ng/ml), 4 hours, read-out: Inhibitory Ratio of NF-κ B Activation(%) Drug Concentration 1 μg/mL
[2] = 10 μg/mL, HepG2, TNF-α (40 ng/ml), 4 hours, read-out: Inhibitory Ratio of NF-κ B Activation(%) Drug Concentration 10 μg/mL
[3] = HepG2, 4 h, comparison table, reporter assay
[4] = HepG2, 4 h, 1 μg/ml, comparison table, reporter assay, read-out: Inhibitory Ratio of NF-κB Activation (%) 1 μg/ml
[5] = HepG2, 4 h, 10 μg/ml, comparison table, reporter assay, read-out: Inhibitory Ratio of NF-κB Activation (%) 10 μg/ml
[6] = 1 μg/mL, HepG2, TNF-α (40 ng/ml), 4 hours
[7] = 10 μg/mL, HepG2, TNF-α (40 ng/ml), 4 hours

SMILES | Inhibitory Ratio of NF-κ B Activation(%) Drug Concentration 1 μg/mL [6] | Inhibitory Ratio of NF-κ B Activation(%) Drug Concentration 10 μg/mL [7] | also measured
O=C(Nc1cc(C(F)(F)F)cc(C(F)(F)F)c1)c1cc(I)ccc1O [Compound No. 7, N-[3,5-bis(trifluoromethyl)phenyl]-2-hydroxy-5-iodobenzamide] | – | – | inhibition at 1 µg/mL [1]: 86.6%; inhibition at 10 µg/mL [2]: 85.4%
O=C(Nc1ccc(F)cc1F)c1cc([N+](=O)[O-])ccc1O [drawing 559, reference compound] | – | – | inhibition at 0.1 µg/mL [3]: -82.9%; inhibition at 1 µg/mL [4]: -63.8%; inhibition at 10 µg/mL [5]: 86.5%
O=C(Nc1cc(Cl)ccc1Cl)c1cc(Cl)ccc1O [Compound No. 122] | 95.1% | 96.9% | –
CC(C)(C)c1csc(NC(=O)c2cc(Br)ccc2O)n1 [Compound No. 185, 5-Bromo-N-{4-[(1,1-dimethyl)ethyl]thiazol-2-yl}-2-hydroxybenzamide] | – | – | inhibition at 1 µg/mL [1]: 88.4%; inhibition at 10 µg/mL [2]: 95.2%
O=C(Nc1nc(-c2ccccc2)cs1)c1cc(Br)ccc1O [Compound No. 208] | – | 78.8% | –
CC(=O)c1sc(NC(=O)c2cc(Br)ccc2O)nc1-c1ccccc1 [Compound No. 214, 5-Bromo-N-(5-acetyl-4-phenylthiazol-2-yl)-2-hydroxybenzamide] | – | – | inhibition at 1 µg/mL [1]: 70.2%; inhibition at 10 µg/mL [2]: 95.9%
Cc1ccc(C)c(NC(=O)c2cc(Cl)ccc2O)c1 [Compound No. 153] | 88.3% | 97.1% | –
O=C(Nc1cc(C(F)(F)F)ccc1Br)c1cc(Cl)ccc1O [Compound No. 107] | 94.9% | 96.2% | –
O=C(Nc1nc(-c2ccc(Cl)c(Cl)c2)cs1)c1cc(Cl)ccc1O [Compound No. 260, 5-Chloro-2-hydroxy-N-[4-(3,4-dichlorophenyl)thiazol-2-yl]benzamide] | – | – | inhibition at 1 µg/mL [1]: > 99.9%
O=C(Nc1cccc(C(F)(F)F)c1)c1cc(Br)ccc1O [drawing 560, reference compound] | – | – | inhibition at 0.1 µg/mL [3]: -20.9%; inhibition at 1 µg/mL [4]: 88%; inhibition at 10 µg/mL [5]: 89.6%
O=C(Nc1nc(-c2ccc(C(F)(F)F)cc2)cs1)c1cc(Cl)ccc1O [Compound No. 261, 5-Chloro-2-hydroxy-N-{4-[4-(trifluoromethyl)phenyl]thiazol-2-yl}benzamide] | – | – | inhibition at 1 µg/mL [1]: > 99.9%
O=C(Nc1nc(-c2ccccc2)c(-c2ccccc2)s1)c1cc(Br)ccc1O [Compound No. 211] | – | 67.0% | –
COc1ccc(O)c(C(=O)Nc2cc(C(F)(F)F)cc(C(F)(F)F)c2)c1 [Compound No. 33] | 30.7% | 97.0% | –
C[Si](C)(C)C#Cc1ccc(O)c(C(=O)Nc2cc(C(F)(F)F)cc(C(F)(F)F)c2)c1 [Compound No. 20, N-[3,5-bis(trifluoromethyl)phenyl]-2-hydroxy-5-[(trimethylsilyl)ethynyl]benzamide] | – | – | inhibition at 1 µg/mL [1]: 91.1%; inhibition at 10 µg/mL [2]: 94.9%
O=C(Nc1cc(C(F)(F)F)ccc1Oc1ccc2ccccc2c1)c1cc(Cl)ccc1O [Compound No. 110] | 96.5% | 98.7% | –
Cc1ccc(-c2ccccc2)cc1NC(=O)c1cc(Cl)ccc1O [Compound No. 172] | 93.7% | 96.4% | –
O=C(Nc1cc(C(F)(F)F)cc(C(F)(F)F)c1)c1cc(S(=O)(=O)n2cccc2)ccc1O [Compound No. 42, N-[3,5-Bis(trifluoromethyl)phenyl]-2-hydroxy-5-(pyrrole-1-sulfonyl)benzamide] | – | – | inhibition at 1 µg/mL [1]: 84.4%; inhibition at 10 µg/mL [2]: 98.1%

SMILES | Inhibitory Ratio of NF-κ B Activation(%) Drug Concentration 1 μg/mL [6] | Inhibitory Ratio of NF-κ B Activation(%) Drug Concentration 10 μg/mL [7] | also measured
CCOC(=O)c1sc(NC(=O)c2cc(Br)ccc2O)nc1-c1ccccc1 [Compound No. 216, 2-(5-bromo-2-hydroxybenzoyl)amino-4-phenylthiazole-5-carboxylic acid ethyl ester] | – | – | inhibition at 1 µg/mL [1]: 55.8%; inhibition at 10 µg/mL [2]: 82.8%
O=C(Nc1cc(C(F)(F)F)ccc1N1CCOCC1)c1cc(Br)ccc1O [Compound No. 98] | 81.8% | 86.4% | –
COc1ccc(C(C)(C)C)cc1NC(=O)c1cc(Cl)ccc1OC(C)=O [Compound No. 136] | 91.0% | 99.4% | –
CC(C)c1cccc(C(=O)Nc2cc(C(F)(F)F)cc(C(F)(F)F)c2)c1O [Compound No. 256, N-[3,5-bis(trifluoromethyl)phenyl]-2-hydroxy-3-isopropylbenzamide] | – | – | inhibition at 1 µg/mL [1]: 92.1%
Cc1nc(NC(=O)c2cc(Br)ccc2O)sc1-c1ccc(F)cc1 [Compound No. 193, 5-Bromo-N-[4-methyl-5-(4-fluorophenyl)thiazol-2-yl]-2-hydroxybenzamide] | – | – | inhibition at 10 µg/mL [2]: 82%
O=C(Nc1cc(C(F)(F)F)cc(C(F)(F)F)c1)c1cc(Cl)cnc1O [Compound No. 75] | 58.1% | 82.2% | –
CC(C)c1cc(Br)cc(C(=O)Nc2cc(C(F)(F)F)cc(C(F)(F)F)c2)c1O [Compound No. 257] | >99.9% | – | –
CSc1ccc(C(F)(F)F)cc1NC(=O)c1cc(Cl)ccc1O [Compound No. 96] | 94.6% | 99.1% | –
CC(C)(C)c1nc(NC(=O)c2cc(Br)ccc2O)sc1C#N [Compound No. 189] | 20.0% | 93.8% | –
COc1cc(Cl)nc(NC(=O)c2cc(Cl)ccc2O)n1 [Compound No. 241] | 25.5% | 78.9% | –
Cc1nc(NC(=O)c2cc(Br)ccc2O)sc1-c1cccc(C(F)(F)F)c1 [Compound No. 194, 5-Bromo-N-{4-methyl-5-[3-(trifluoromethyl)phenyl]thiazol-2-yl}-2-hydroxybenzamide] | – | – | inhibition at 10 µg/mL [2]: 71.7%
O=C(Nc1cc(C(F)(F)F)cc(C(F)(F)F)c1)c1cccc(O)c1O [Compound No. 57] | – | 91.9% | –
O=C(Nc1cc(C(F)(F)F)cc(C(F)(F)F)c1)c1cc(S(=O)(=O)Nc2cc(C(F)(F)F)cc(C(F)(F)F)c2)ccc1Cl [Compound No. 247] | – | >99.9% | –
O=C(Nc1cc(N2CCOCC2)ccc1[N+](=O)[O-])c1cc(Cl)ccc1O [Compound No. 174] | – | 89.6% | –
O=C(Nc1cc(Cl)cc(Cl)c1)c1cc(F)ccc1O [Compound No. 124] | 94.2% | 97.0% | –
O=C(Nc1cc(C(F)(F)F)ccc1Cl)c1cc(Cl)cnc1O [Compound No. 119] | 85.4% | 86.9% | –
CC(C)(C)c1nc(NC(=O)c2cc(Br)ccc2O)sc1N1CCOCC1 [Compound No. 205, 5-Bromo-N-{4-[(1,1-dimethyl)ethyl]-5-morpholinothiazol-2-yl}-2-hydroxybenzamide] | – | – | inhibition at 1 µg/mL [1]: 87.8%; inhibition at 10 µg/mL [2]: 96.8%
